Data as given in the NIST ThermoML archive (doi:10.1016/j.jct.2015.07.014).

Assay: xn = mol fraction of the nth substance listed
Settings: Fluid (supercritical or subcritical phases), Buoyancy - hydrostatic balance with magnetic suspension - one sinker

[Ar] [argon] + O=C=O
Settings	mass density [kg/m3]
298.12 K, 30871 kPa, x1 = 0.99	502.471
298.17 K, 30944 kPa, x1 = 0.95	514.698
298.18 K, 28957 kPa, x1 = 0.99	476.725
298.19 K, 10975 kPa, x1 = 0.99	187.045
298.19 K, 12973 kPa, x1 = 0.99	222.038
298.19 K, 14969 kPa, x1 = 0.99	256.759
298.19 K, 16969 kPa, x1 = 0.99	291.075
298.19 K, 18969 kPa, x1 = 0.99	324.674
298.19 K, 26962 kPa, x1 = 0.99	448.747
298.2 K, 20967 kPa, x1 = 0.99	357.351
298.2 K, 22966 kPa, x1 = 0.99	389.003
298.2 K, 24964 kPa, x1 = 0.99	419.491
298.22 K, 10976 kPa, x1 = 0.95	190.182
298.23 K, 12976 kPa, x1 = 0.95	226.201
298.23 K, 14974 kPa, x1 = 0.95	261.987
298.23 K, 16969 kPa, x1 = 0.95	297.274
298.23 K, 18970 kPa, x1 = 0.95	331.923
298.23 K, 20969 kPa, x1 = 0.95	365.576
298.23 K, 22968 kPa, x1 = 0.95	398.09
298.23 K, 24967 kPa, x1 = 0.95	429.349
298.23 K, 26965 kPa, x1 = 0.95	459.226
298.23 K, 28963 kPa, x1 = 0.95	487.701
323.2 K, 10978 kPa, x1 = 0.99	168.714
323.2 K, 24965 kPa, x1 = 0.99	375.34
323.2 K, 30955 kPa, x1 = 0.99	452.317
323.21 K, 14970 kPa, x1 = 0.99	230.302
323.21 K, 16971 kPa, x1 = 0.99	260.652
323.21 K, 18969 kPa, x1 = 0.99	290.39
323.21 K, 20969 kPa, x1 = 0.99	319.49
323.21 K, 22966 kPa, x1 = 0.99	347.807
323.21 K, 26962 kPa, x1 = 0.99	401.924
323.21 K, 28960 kPa, x1 = 0.99	427.589
323.22 K, 12973 kPa, x1 = 0.99	199.627
323.24 K, 24968 kPa, x1 = 0.95	382.594
323.24 K, 30958 kPa, x1 = 0.95	460.997
323.25 K, 16970 kPa, x1 = 0.95	265.1
323.25 K, 22969 kPa, x1 = 0.95	354.46
323.25 K, 28963 kPa, x1 = 0.95	435.856
323.26 K, 10976 kPa, x1 = 0.95	170.993
323.26 K, 12974 kPa, x1 = 0.95	202.641
323.26 K, 14973 kPa, x1 = 0.95	234.077
323.27 K, 18969 kPa, x1 = 0.95	295.579
323.27 K, 20973 kPa, x1 = 0.95	325.456
323.27 K, 26965 kPa, x1 = 0.95	409.68
348.21 K, 14972 kPa, x1 = 0.99	209.619
348.21 K, 16970 kPa, x1 = 0.99	236.897
348.21 K, 18972 kPa, x1 = 0.99	263.764
348.22 K, 20972 kPa, x1 = 0.99	290.057
348.22 K, 30956 kPa, x1 = 0.99	411.615
348.23 K, 28960 kPa, x1 = 0.99	388.704
348.24 K, 26963 kPa, x1 = 0.99	365.062
348.25 K, 10977 kPa, x1 = 0.99	154.064
348.25 K, 12974 kPa, x1 = 0.99	181.967
348.25 K, 24966 kPa, x1 = 0.99	340.708
348.25 K, 30958 kPa, x1 = 0.95	418.385
348.26 K, 22968 kPa, x1 = 0.99	315.675
348.28 K, 18972 kPa, x1 = 0.95	267.685
348.28 K, 20972 kPa, x1 = 0.95	294.53
348.28 K, 28962 kPa, x1 = 0.95	395.094
348.29 K, 22970 kPa, x1 = 0.95	320.729
348.29 K, 26966 kPa, x1 = 0.95	371.043
348.3 K, 10979 kPa, x1 = 0.95	155.9
348.3 K, 12976 kPa, x1 = 0.95	184.3
348.3 K, 14972 kPa, x1 = 0.95	212.437
348.3 K, 16971 kPa, x1 = 0.95	240.266
348.31 K, 24969 kPa, x1 = 0.95	346.237
373.22 K, 16970 kPa, x1 = 0.99	217.712
373.22 K, 18968 kPa, x1 = 0.99	242.204
373.22 K, 30957 kPa, x1 = 0.99	378.472
373.23 K, 22970 kPa, x1 = 0.99	289.853
373.23 K, 24965 kPa, x1 = 0.99	312.835
373.23 K, 26964 kPa, x1 = 0.99	335.305
373.24 K, 10977 kPa, x1 = 0.95	143.58
373.24 K, 14972 kPa, x1 = 0.99	192.822
373.24 K, 20969 kPa, x1 = 0.99	266.255
373.24 K, 28960 kPa, x1 = 0.99	357.169
373.25 K, 10978 kPa, x1 = 0.99	142.11
373.25 K, 12977 kPa, x1 = 0.99	167.627
373.28 K, 18969 kPa, x1 = 0.95	245.312
373.29 K, 16972 kPa, x1 = 0.95	220.418
373.29 K, 28963 kPa, x1 = 0.95	362.242
373.29 K, 30959 kPa, x1 = 0.95	383.847
373.3 K, 12975 kPa, x1 = 0.95	169.447
373.31 K, 14971 kPa, x1 = 0.95	195.043
373.31 K, 20969 kPa, x1 = 0.95	269.779
373.31 K, 26966 kPa, x1 = 0.95	340.003
373.32 K, 22966 kPa, x1 = 0.95	293.716
373.32 K, 24968 kPa, x1 = 0.95	317.167
398.26 K, 12977 kPa, x1 = 0.99	155.613
398.28 K, 10979 kPa, x1 = 0.99	132.065
398.28 K, 20968 kPa, x1 = 0.99	246.59
398.28 K, 30957 kPa, x1 = 0.99	350.842
398.29 K, 26962 kPa, x1 = 0.99	310.557
398.29 K, 28962 kPa, x1 = 0.99	330.96
398.3 K, 14970 kPa, x1 = 0.99	178.803
398.3 K, 18971 kPa, x1 = 0.99	224.388
398.3 K, 22969 kPa, x1 = 0.99	268.392
398.3 K, 24967 kPa, x1 = 0.99	289.714
398.31 K, 16969 kPa, x1 = 0.99	201.75
398.31 K, 26966 kPa, x1 = 0.95	314.455
398.31 K, 28963 kPa, x1 = 0.95	335.112
398.33 K, 14977 kPa, x1 = 0.95	180.735
398.33 K, 24965 kPa, x1 = 0.95	293.233
398.33 K, 30959 kPa, x1 = 0.95	355.238
398.34 K, 22971 kPa, x1 = 0.95	271.617
398.35 K, 18973 kPa, x1 = 0.95	226.932
398.35 K, 20972 kPa, x1 = 0.95	249.488
398.36 K, 12973 kPa, x1 = 0.95	157.068
398.36 K, 16970 kPa, x1 = 0.95	203.95
398.37 K, 10980 kPa, x1 = 0.95	133.275
423.22 K, 10980 kPa, x1 = 0.99	123.515
423.22 K, 16967 kPa, x1 = 0.99	188.325
423.23 K, 14969 kPa, x1 = 0.99	166.982
423.24 K, 12971 kPa, x1 = 0.99	145.339
423.28 K, 18967 kPa, x1 = 0.99	209.329
423.3 K, 20973 kPa, x1 = 0.99	230.071
423.3 K, 22965 kPa, x1 = 0.99	250.298
423.3 K, 30956 kPa, x1 = 0.99	327.48
423.31 K, 12974 kPa, x1 = 0.95	146.65
423.32 K, 24968 kPa, x1 = 0.95	273.195
423.33 K, 10981 kPa, x1 = 0.95	124.535
423.33 K, 14975 kPa, x1 = 0.95	168.571
423.33 K, 24964 kPa, x1 = 0.99	270.201
423.33 K, 26968 kPa, x1 = 0.95	292.962
423.33 K, 28959 kPa, x1 = 0.99	308.785
423.34 K, 18970 kPa, x1 = 0.95	211.466
423.34 K, 26961 kPa, x1 = 0.99	289.685
423.34 K, 28966 kPa, x1 = 0.95	312.296
423.35 K, 16970 kPa, x1 = 0.95	190.146
423.35 K, 20971 kPa, x1 = 0.95	232.422
423.35 K, 30960 kPa, x1 = 0.95	331.165
423.36 K, 22968 kPa, x1 = 0.95	252.983
